Read-outs that look alike come from different tables or passages of the source.
Experiments:
Experiment in all cases: Two-step fluorescence assay for determination of IC50
Assay type in all cases: biochemical
HDAC1 = HDAC1 (Homo sapiens, UniProt Q13547); settings: ε-acetylated lysine substrate, trypsin release of 7-amino-4-methylcoumarin; four parameter fit; read-out: IC50 values HDAC1
Protocol: (§1) In order to evaluate the inhibitory characteristics of example compounds of the invention, IC50 values were determined for such compounds. […] A two-step assay was used for this purpose.
(§2) To obtain the IC50 value for an individual compound/HDAC pair, a two-step assay can be performed based on a fluorescence signal. In principle, an ε-acetylated lysine substrate is deacetylated by histone-deacetylases in the first step. Trypsin releases detectable 7-amino-4-methylcoumarin (ex = excitation wavelength: 390 nm, em = emission wavelength: 460 nm) by cleaving the substrate at the deacetylated lysine in a subsequent reaction^[9]. The enzyme activity is inhibited by a suitable HDACi.
(§3) The obtained data are interpreted using a four parameter fit. Based on this fit, the IC50 value can be estimated. Analysis ot the data and calculation of the IC50 values was accomplished using a four-parameter logistic model protocol as previously described by Vølund^[16]. For nonlinear fits the Levenberg-Marquardt algorithm was applied^[17],[18]. […] Table 1: IC50 values in µM for synthesized compounds of the invention with a perfluorinated linker. […] HDAH = HDAC-like amidohydrolase

HDAC6 = molecular target: T1, HDAC6 (Homo sapiens, UniProt Q9UBN7)
T1 sequence (Q9UBN7 1-1215): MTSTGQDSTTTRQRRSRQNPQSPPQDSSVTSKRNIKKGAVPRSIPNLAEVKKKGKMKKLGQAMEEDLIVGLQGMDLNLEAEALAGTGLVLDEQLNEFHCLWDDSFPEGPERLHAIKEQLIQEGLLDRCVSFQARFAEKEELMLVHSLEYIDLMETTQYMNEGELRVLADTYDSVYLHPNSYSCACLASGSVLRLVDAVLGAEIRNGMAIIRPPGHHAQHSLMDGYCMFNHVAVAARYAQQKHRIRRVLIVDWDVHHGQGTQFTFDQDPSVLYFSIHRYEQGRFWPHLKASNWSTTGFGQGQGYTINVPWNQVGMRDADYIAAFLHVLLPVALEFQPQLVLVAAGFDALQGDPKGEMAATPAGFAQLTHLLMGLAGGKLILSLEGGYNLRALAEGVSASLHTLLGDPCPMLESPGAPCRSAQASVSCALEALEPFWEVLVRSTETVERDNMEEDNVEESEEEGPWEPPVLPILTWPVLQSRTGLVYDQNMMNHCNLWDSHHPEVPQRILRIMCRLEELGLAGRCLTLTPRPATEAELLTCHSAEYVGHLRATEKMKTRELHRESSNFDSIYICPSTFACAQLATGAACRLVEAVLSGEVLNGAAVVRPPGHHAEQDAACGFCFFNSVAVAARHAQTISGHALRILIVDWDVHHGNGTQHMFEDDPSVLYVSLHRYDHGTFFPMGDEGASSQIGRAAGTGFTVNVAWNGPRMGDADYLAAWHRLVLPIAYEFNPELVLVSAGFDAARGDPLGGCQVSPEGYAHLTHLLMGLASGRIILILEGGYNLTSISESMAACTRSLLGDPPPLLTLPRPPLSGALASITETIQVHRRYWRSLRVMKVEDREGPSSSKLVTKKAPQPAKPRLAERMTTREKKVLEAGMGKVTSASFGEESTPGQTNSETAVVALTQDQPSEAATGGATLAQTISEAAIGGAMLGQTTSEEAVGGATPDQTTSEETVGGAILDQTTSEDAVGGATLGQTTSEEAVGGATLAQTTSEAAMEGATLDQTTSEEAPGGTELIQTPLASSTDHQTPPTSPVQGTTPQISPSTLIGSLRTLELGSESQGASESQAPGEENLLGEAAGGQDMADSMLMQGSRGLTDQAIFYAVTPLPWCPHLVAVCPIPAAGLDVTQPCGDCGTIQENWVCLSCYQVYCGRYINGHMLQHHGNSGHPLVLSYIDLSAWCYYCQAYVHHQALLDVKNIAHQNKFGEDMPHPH
Protocol: as §1, §2, §3

HDAC7 = molecular target: T2, HDAC7 (Homo sapiens, UniProt Q8WUI4); settings: ε-acetylated lysine substrate, trypsin release of 7-amino-4-methylcoumarin; four parameter fit; read-out: IC50 values HDAC7
T2 sequence (Q8WUI4 1-952): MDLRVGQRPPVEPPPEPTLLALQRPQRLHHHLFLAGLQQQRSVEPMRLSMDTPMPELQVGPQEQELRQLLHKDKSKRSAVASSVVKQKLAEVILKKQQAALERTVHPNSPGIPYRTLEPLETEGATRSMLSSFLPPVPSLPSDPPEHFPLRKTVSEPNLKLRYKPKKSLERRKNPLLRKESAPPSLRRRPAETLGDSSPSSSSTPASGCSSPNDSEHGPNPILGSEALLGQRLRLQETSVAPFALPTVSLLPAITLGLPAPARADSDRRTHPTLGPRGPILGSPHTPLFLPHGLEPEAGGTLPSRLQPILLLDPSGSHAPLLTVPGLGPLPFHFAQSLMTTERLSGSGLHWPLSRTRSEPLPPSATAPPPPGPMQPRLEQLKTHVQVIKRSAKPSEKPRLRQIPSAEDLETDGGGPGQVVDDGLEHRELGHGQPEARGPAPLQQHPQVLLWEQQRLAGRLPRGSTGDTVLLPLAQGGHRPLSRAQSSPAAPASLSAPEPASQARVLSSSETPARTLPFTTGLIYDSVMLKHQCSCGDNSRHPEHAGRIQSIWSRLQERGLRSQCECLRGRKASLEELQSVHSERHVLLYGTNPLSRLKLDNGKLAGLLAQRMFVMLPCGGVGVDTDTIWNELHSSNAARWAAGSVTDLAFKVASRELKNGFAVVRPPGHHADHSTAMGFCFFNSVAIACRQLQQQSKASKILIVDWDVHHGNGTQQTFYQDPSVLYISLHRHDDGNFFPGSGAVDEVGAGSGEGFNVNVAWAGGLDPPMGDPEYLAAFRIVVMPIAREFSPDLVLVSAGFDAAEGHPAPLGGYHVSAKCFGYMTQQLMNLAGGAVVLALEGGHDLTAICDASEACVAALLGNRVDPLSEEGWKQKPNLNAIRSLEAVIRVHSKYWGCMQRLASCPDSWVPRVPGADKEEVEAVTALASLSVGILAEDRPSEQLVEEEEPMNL
Protocol: as §1, §2, §3

HDAC8 = molecular target: T3, HDAC8 (Homo sapiens, UniProt Q9BY41); settings: ε-acetylated lysine substrate, trypsin release of 7-amino-4-methylcoumarin; four parameter fit; read-out: IC50 values HDAC8
T3 sequence (Q9BY41 1-377): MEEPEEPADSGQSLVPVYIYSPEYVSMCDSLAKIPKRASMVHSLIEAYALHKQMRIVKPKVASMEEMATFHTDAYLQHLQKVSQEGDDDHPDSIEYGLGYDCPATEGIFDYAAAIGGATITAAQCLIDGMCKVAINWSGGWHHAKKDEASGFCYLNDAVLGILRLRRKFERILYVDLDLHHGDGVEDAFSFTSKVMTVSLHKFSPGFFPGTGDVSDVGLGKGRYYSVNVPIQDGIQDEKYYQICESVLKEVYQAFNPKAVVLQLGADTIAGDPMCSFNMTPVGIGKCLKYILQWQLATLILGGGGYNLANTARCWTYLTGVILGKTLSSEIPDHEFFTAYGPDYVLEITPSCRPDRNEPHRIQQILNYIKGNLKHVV
Protocol: as §1, §2, §3

HDAH = molecular target: T4, HDAH (Alcaligenes sp., UniProt Q70I53)
T4 sequence (Q70I53 1-369): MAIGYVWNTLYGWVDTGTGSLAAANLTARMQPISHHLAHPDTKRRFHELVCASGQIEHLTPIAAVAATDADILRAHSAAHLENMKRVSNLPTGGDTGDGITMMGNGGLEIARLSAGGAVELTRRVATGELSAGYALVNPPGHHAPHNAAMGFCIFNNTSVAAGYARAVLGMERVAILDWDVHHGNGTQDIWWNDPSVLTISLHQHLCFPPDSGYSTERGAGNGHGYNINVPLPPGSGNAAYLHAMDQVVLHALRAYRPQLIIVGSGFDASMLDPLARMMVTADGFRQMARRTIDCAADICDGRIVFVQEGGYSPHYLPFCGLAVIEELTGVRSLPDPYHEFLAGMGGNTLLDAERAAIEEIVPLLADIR
Protocol: as §1, §2, §3

Chain of HDAC1 (Q13547 whole entry): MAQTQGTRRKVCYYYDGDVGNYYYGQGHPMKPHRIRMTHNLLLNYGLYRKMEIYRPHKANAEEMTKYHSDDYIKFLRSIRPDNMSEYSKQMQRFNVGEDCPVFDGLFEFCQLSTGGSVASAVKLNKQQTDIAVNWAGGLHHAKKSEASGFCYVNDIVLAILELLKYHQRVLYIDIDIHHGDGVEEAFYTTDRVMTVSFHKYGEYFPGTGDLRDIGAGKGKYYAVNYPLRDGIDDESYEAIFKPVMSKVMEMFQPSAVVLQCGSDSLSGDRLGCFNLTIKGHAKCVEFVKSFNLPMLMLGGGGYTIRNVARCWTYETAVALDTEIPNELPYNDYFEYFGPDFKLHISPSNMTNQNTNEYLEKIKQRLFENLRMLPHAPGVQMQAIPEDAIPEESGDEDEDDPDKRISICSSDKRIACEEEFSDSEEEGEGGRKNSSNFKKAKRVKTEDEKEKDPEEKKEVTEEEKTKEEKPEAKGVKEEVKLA

Row | IC50 (HDAC6; ε-acetylated lysine substrate, trypsin release of 7-amino-4-methylcoumarin, four parameter fit, read-out: IC50 values HDAC6) [µM] | IC50 (HDAH; HDAC-like amidohydrolase, ε-acetylated lysine substrate, trypsin release of 7-amino-4-methylcoumarin, four parameter fit, read-out: IC50 values HDAH) [µM] | Structure (SMILES) | IC50 (HDAC1) [µM] | IC50 (HDAC6) [µM] | IC50 (HDAC7) [µM] | IC50 (HDAC8) [µM] | IC50 (HDAH) [µM]
1 |  |  | O=C(NO)C(F)(F)C(F)(F)C(F)(F)C(F)(F)C(F)(F)C(F)(F)C(=O)Nc1ccc(Cl)cc1 [LU223, 2,2,3,3,4,4,5,5,6,6,7,7-Dodecafluorooctanedioic acid (4-chlorophenyl)amide hydroxyamide] | 15.1 | 26.3 | 26.8 | 73 | 0.72
2 | 5.13 | 0.91 | O=C(NO)C(F)(F)C(F)(F)C(F)(F)C(F)(F)C(F)(F)C(F)(F)C(=O)Nc1ccc(I)cc1 [LU227, 2,2,3,3,4,4,5,5,6,6,7,7-Dodecafluorooctanedioic acid hydroxyamide (4-iodo-phenyl)amide] | 16.9 |  | 6.86 | 75.8 | 
